The values that follow come from patent US20040224958A1, “Pyridopyrimidinone derivatives for treatment of neurodegenerative disease” (priority 2000, published 2004).

Where two headings read alike, the source gives them in different places.

Data set [1] has as its target Cdk5/p25 (Homo sapiens, UniProt Q00535). The experiment in a line: Cyclin-Dependent Kinase 5 High Throughput Screening (cdk5-HTS) Assay. As to conditions: high throughput screen. The format is biochemical. In short, it runs like this:
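IC50 determined from 33P incorporation into GST-RbCOOH captured on glutathione plates and read by scintillation counting. Reaction: 1.0 μg/mL Cdk5/p25, 20 μM [γ33P]ATP, pH 7.4 Tris buffer with MgCl2 and DTT, 30 min at room temperature, stopped with EDTA.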

Data set [2] addresses cdk2/cyclinA (Homo sapiens, UniProt P24941). The experiment in a line: Cyclin-Dependent Kinase Assay cdk2/cyclinA.
Data set [3] deals with cdc2/cyclinB (Homo sapiens, UniProt P06493). The experiment in a line: Cyclin-Dependent Kinase Assay cdc2/cyclinB.
cdc2/cyclinB, sequence (P06493 whole entry): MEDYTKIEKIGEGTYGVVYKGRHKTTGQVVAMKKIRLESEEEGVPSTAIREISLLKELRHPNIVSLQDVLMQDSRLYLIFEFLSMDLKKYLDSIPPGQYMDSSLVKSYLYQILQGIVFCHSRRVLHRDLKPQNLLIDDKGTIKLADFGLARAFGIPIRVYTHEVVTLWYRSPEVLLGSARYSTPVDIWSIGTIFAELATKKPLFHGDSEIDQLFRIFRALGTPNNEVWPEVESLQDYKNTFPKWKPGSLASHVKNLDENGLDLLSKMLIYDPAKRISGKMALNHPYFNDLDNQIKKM
cdc2/cyclinB, sequence (P14635 whole entry, further chain): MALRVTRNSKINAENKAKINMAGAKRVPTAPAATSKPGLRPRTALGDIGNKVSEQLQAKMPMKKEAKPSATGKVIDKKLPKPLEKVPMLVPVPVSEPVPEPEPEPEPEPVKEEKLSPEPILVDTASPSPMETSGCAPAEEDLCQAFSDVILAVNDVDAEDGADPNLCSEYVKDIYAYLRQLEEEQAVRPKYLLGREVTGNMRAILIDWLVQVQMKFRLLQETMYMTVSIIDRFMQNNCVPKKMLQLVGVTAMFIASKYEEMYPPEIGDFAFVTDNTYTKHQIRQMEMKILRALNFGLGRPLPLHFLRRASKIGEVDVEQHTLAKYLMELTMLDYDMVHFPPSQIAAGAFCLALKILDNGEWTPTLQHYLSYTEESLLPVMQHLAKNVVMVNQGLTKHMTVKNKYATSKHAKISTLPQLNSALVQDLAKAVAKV
The target in data set [4] is cdk2/cyclinE (Homo sapiens, UniProt P24941). The data set is described as follows: Cyclin-Dependent Kinase Assay cdk2/cyclinE.
In data set [5] the target is cdk4/D (Homo sapiens, UniProt P11802). The experiment in a line: Cyclin-Dependent Kinase 4 (cdk4) Assay. Format: biochemical. The conditions noted are these: read-out: cdk4/D IC50.
cdk4/D, sequence (P11802 whole entry): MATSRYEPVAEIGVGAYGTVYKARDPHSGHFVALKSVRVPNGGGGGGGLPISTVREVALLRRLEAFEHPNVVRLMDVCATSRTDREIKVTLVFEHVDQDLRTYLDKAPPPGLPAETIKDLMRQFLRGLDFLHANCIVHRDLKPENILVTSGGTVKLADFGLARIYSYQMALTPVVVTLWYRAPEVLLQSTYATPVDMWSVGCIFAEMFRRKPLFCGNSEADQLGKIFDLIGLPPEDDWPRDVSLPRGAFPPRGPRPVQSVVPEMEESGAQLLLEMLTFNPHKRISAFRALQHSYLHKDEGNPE
cdk4/D, sequence (P24385 whole entry, further chain): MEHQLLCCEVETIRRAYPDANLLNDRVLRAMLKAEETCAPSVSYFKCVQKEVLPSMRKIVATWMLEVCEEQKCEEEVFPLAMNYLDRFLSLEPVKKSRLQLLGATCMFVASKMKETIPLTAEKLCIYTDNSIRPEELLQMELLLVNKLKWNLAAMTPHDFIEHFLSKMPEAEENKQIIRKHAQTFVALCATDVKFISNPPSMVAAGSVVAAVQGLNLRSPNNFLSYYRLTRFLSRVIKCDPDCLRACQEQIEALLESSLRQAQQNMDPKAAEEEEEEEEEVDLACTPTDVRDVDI

As usually defined, the melting point is the temperature of the solid-liquid transition. Consider `CCCn1c(=O)ccc2cnc(Nc3ccccc3)nc21` [Example 41, 2-Phenylamino-8-propyl-8H-pyrido[2,3-d]pyrimidin-7-one], for which the melting point was in the range of 163 to 164 °C.
For the compound `CC(C)n1c(=O)ccc2cnc(Nc3ccccc3)nc21` [Example 43, 8-Isopropyl-2-phenylamino-8H-pyrido[2,3-d]pyrimidin-7-one], the melting point was in the range of 170 to 171 °C.
With `CCn1c(=O)ccc2cnc(NCc3ccccc3)nc21` [Example 44, 2-Benzylamino-8-ethyl-8H-pyrido[2,3-d]pyrimidin-7-one], the melting point was in the range of 96 to 97 °C.
Compound `CCn1c(=O)ccc2cnc(NC(C)(C)C)nc21` [Example 46, 2-tert-Butylamino-8-ethyl-8H-pyrido[2,3-d]pyrimidin-7-one] gave a melting point of 103 to 104 °C.
On the same count and under the same terms, then `CCn1c(=O)ccc2cnc(NC3CCCCC3)nc21` [Example 48, 2-Cyclohexylamino-8-ethyl-8H-pyrido[2,3-d]pyrimidin-7-one], with 135 to 136 °C; and `CCn1c(=O)ccc2cnc(Nc3ccc(-c4ccccc4)cc3)nc21` [Example 49, 2-(Biphenyl-4-ylamino)-8-ethyl-8H-pyrido[2,3-d]pyrimidin-7-one], with 207 to 208 °C.
With `COc1ccc(Cn2c(=O)ccc3cnc(Nc4ccccc4)nc32)cc1` [Example 58, 8-(4-Methoxybenzyl)-2-phenylamino-8H-pyrido[2,3-d]pyrimidin-7-one], the melting point was 215 to 216 °C.
Consider `CCN(CC)CCOc1ccc(Nc2ncc3ccc(=O)n(C(C)C)c3n2)cc1` [Example 59, 2-[4-(2-Diethylaminoethoxy)-phenylamino]-8-isopropyl-8H-pyrido[2,3-d]-pyrimidin-7-one], for which the melting point was 84 to 85 °C.
`Cn1c(=O)ccc2cnc(N)nc21` [Example 62, 2-Amino-8-methyl-8H-pyrido[2,3-d]pyrimidin-7-one] registered a melting point of 237 to 253 °C.
On to `Cn1c(=O)ccc2cnc(NCc3ccccc3)nc21` [Example 63, 2-Benzylamino-8-methyl-8H-pyrido[2,3-d]pyrimidin-7-one], for which the melting point fell in the range of 160 to 162 °C.
For the compound `CCCCNc1ncc2ccc(=O)n(C)c2n1` [Example 64, 2-Butylamino-8-methyl-8H-pyrido[2,3-d]pyrimidin-7-one], the melting point is 146 to 147 °C.
The same measure, in the same setting: the same measure for `CCNc1ncc2ccc(=O)n(C)c2n1` [Example 65, 2-Ethylamino-8-methyl-8H-pyrido[2,3-d]pyrimidin-7-one]: 194 to 195 °C; for `Cn1c(=O)ccc2cnc(NCCc3ccccn3)nc21` [Example 66, 8-Methyl-2-(2-pyridin-2-yl-ethylamino)-8H-pyrido[2,3-d]pyrimidin-7-one]: 155 to 156 °C.
Same read-out and setting: the same measure for `CCNc1nc(Nc2ccccc2)ncc1CCC(=O)OCC` [Example 68, 3-(4-Ethylamino-2-phenylamino-pyrimidin-5-yl)propionic acid ethyl ester]: 106 to 107 °C.
Consider `CCNc1nc(Nc2ccccc2)ncc1C=CC#N` [Example 72, 3-(4-Ethylamino-2-phenylamino-pyrimidin-5-yl)acrylonitrile], for which the melting point fell in the range of 244 to 246 °C.
`CCNc1nc(Nc2ccccc2)ncc1C(C)=CC(=O)OCC` [Example 73, 3-(4-Ethylamino-2-phenylamino-pyrimidin-5-yl)-but-2-enoic acid ethyl ester] yielded a melting point of 148 to 150 °C.
For the compound `CCN(CC)c1ccc(Nc2ncc3ccc(=O)n(CC)c3n2)cc1` [Example 78, 2-(4-Diethylamino-phenylamino)-8-ethyl-8H-pyrido[2,3-d]pyrimidin-7-one], the melting point fell in the range of 108 to 109 °C.
The compound `CCC(C)n1c(=O)ccc2cnc(Nc3ccccc3)nc21` (stereo not shown) [Example 85, 8-sec-Butyl-2-phenylamino-8H-pyrido[2,3-d]pyrimidin-7-one] returned a melting point of 155 to 156 °C.
Same read-out and setting: then `O=c1ccc2cnc(Nc3ccccc3)nc2n1CCCOc1ccccc1` [Example 87, 8-(3-Phenoxypropyl)-2-phenylamino-8H-pyrido[2,3-d]pyrimidin-7-one], with 175 to 176 °C; and `CCNc1ncc2ccc(=O)n(-c3ccccc3)c2n1` [Example 100, 2-Ethylamino-8-phenyl-8H-pyrido[2,3-d]pyrimidin-7-one], with 193 to 195 °C.
Same read-out and setting: the same measure for `CCn1c(=O)ccc2cnc(Nc3ccc(-n4cccc4)cc3)nc21` [Example 110, 8-Ethyl-2-(4-pyrrol-1-yl-phenylamino)-8H-pyrido[2,3-d]pyrimidin-7-one]: 220 to 222 °C.
The compound `CC(C)n1c(=O)ccc2cnc(Nc3ccc(O)cc3)nc21` [Example 112, 2-(4-Hydroxy-phenylamino)-8-isopropyl-8H-pyrido[2,3-d]pyrimidin-7-one] displayed a melting point of 226 to 228 °C.
On to `CN1CCN(c2ccc(Nc3ncc4ccc(=O)n(-c5ccccc5)c4n3)cc2)CC1` [Example 113, 2-[4-(4-Methyl-piperazin-1-yl)-phenylamino]-8-phenyl-8H-pyrido[2,3-d]pyrimidin-7-one], for which the melting point is 259 to 262 °C.
Consider `CN1CCN(c2ccc(Nc3ncc4ccc(=O)n(CCCOCc5ccccc5)c4n3)cc2)CC1` [Example 115, 8-(3-Benzyloxy-propyl)-2-[4-(4-methyl-piperazin-1-yl)-phenylamino]-8H-pyrido[2,3-d]pyrimidin-7-one], for which the melting point was 148 to 150 °C.
On the same count and under the same terms, then `CCN(CC)CCOc1ccc(Nc2ncc3ccc(=O)n(CCCOCc4ccccc4)c3n2)cc1` [Example 116, 8-(3-Benzyloxy-propyl)-2-[4-(2-diethylamino-ethoxy)-phenylamino]-8H-pyrido[2,3-d]pyrimidin-7-one], with 70 to 72 °C.
`O=c1ccc2cnc(Nc3ccc4nn[nH]c4c3)nc2n1CC(F)(F)F` [Example 595, 2-(1H-Benzotriazol-5-ylamino)-8-(2,2,2-trifluoro-ethyl)-8H1-pyrido[2,3-d]pyrimidin-7-one]: the IC50 was 155 nM in data set [1]; 1450 nM in data set [2] (cdk2/A IC50); 2000 nM in data set [3]; 510 nM in data set [4] (cdk2/E IC50); 2000 nM in data set [5].
Consider `O=c1ccc2cnc(Nc3ccc(O)c(Cl)c3)nc2n1CC(F)(F)F` [Example 597, 2-(3-Chloro-4-hydroxy-phenylamino)-8-(2,2,2-trifluoro-ethyl)-8H-pyrido[2,3-d]pyrimidin-7-one], for which the IC50 in data set [1] stood at 250 nM; in data set [2] (cdk2/A IC50) it was 1010 nM; in data set [3], 435 nM; in data set [4] (cdk2/E IC50) it was 317 nM; in data set [5] it was 2000 nM.
The like results for `COc1ccc(Nc2ncc3ccc(=O)n(CC(F)(F)F)c3n2)cc1OC` [Example 600, 2-(3,4-Dimethoxy-phenylamino)-8-(2,2,2-trifluoro-ethyl)-8H-pyrido[2,3-d]pyrimidin-7-one] were, in that order, 124 nM, 1600 nM, 905 nM, 970 nM and 1780 nM.
Take `O=c1ccc2cnc(Nc3ccccc3)nc2n1CC(F)(F)F` [Example 601, 2-Phenylamino-8-(2,2,2-trifluoro-ethyl)-8H-pyrido[2,3-d]pyrimidin-7-one]: the IC50 was 400 nM in data set [1]; 2850 nM in data set [2] (cdk2/A IC50); 1650 nM in data set [3]; 1200 nM in data set [4] (cdk2/E IC50); 1450 nM in data set [5].
For `COc1ccc(Nc2ncc3ccc(=O)n(C4CCCCC4)c3n2)cc1OC` [Example 613, 8-Cyclohexyl-2-(3,4-dimethoxy-phenylamino)-8H-pyrido[2,3-d]pyrimidin-7-one] the same measures were 63 nM, 152 nM, 101 nM, 36.3 nM and 415 nM.
For `Cn1c(=O)ccc2cnc(Nc3ccc4[nH]ccc4c3)nc21` [Example 614, 2-(1H-Indol-5-ylamino)-8-methyl-8H-pyrido[2,3-d]pyrimidin-7-one] the same measures were 615 nM, 2000 nM, 1430 nM, 917 nM and 1350 nM.
The like results for `Cn1c(=O)ccc2cnc(Nc3ccc(NC(=O)OC(C)(C)C)cc3)nc21` [Example 615, [4-(8-Methyl-7-oxo-7,8-dihydro-pyrido[2,3-d]pyrimidin-2-ylamino)-phenyl]-carbamic acid tert-butyl ester] were, in that order, 1140 nM, 3600 nM, 1760 nM, 1530 nM and 3000 nM.
`CCn1c(=O)ccc2cnc(Nc3ccc4[nH]ccc4c3)nc21` [Example 621, 8-Ethyl-2-(1H-indol-5-ylamino)-8H-pyrido[2,3-d]pyrimidin-7-one]: the IC50 in data set [1] was found to be 250 nM; in data set [2] (cdk2/A IC50), 925 nM; in data set [3], 540 nM; in data set [4] (cdk2/E IC50) it was 400 nM; in data set [5] it was 230 nM.
For “[4-(7-Oxo-8-propyl-7,8-dihydro-pyrido[2,3-d]pyrimidin-2-ylamino)-phenyl]-carbamic acid tert-butyl ester [Example 326]”, the IC50 amounted to 460 nM in data set [1]; 2450 nM in data set [2] (read-out: cdk2/A IC50); 995 nM in data set [3] (read-out: cdk1/B IC50); 820 nM in data set [4] (read-out: cdk2/E IC50); 2100 nM in data set [5].
